Measured values: ChEMBL document CHEMBL4811309, “Design, synthesis and antiproliferative activity of novel 2,4-diamino-5-methyleneaminopyrimidine derivatives as potential anticancer agents” (Bioorg Med Chem Lett, 2021)

System: HCT-116
Experiment: Antiproliferative activity against human HCT-116 cells assessed as reduction in cell viability by MTT assay
Format: functional, cell-based

| SMILES | IC50 [µM] |
| --- | --- |
| CN1CCN(c2ccc(Nc3ncc(/N=C/c4ccc(C(F)(F)F)cc4)c(NC4CCCC4)n3)cc2)CC1 | > 100 |
| CC(C)Nc1nc(Nc2ccc(N3CCOCC3)cc2)ncc1/N=C/c1cccs1 | 14.8 |
| CC(C)Nc1nc(Nc2ccc(S(N)(=O)=O)cc2)ncc1/N=C/c1ccccc1 | > 100 |
| NS(=O)(=O)c1ccc(Nc2ncc(/N=C/c3ccccc3)c(NC3CCCC3)n2)cc1 | 26.1 |
| CC(C)Nc1nc(Nc2ccc(N3CCN(C)CC3)cc2)ncc1/N=C/c1ccc(C(F)(F)F)cc1 | 42.2 |
| C(=N\c1cnc(Nc2ccc(N3CCOCC3)cc2)nc1NC1CCCC1)/c1ccccc1 | > 100 |
| CCOC(=O)/C=N/c1cnc(Nc2ccc(N3CCOCC3)cc2)nc1NC(C)C | 23.7 |
| CC(C)Nc1nc(Nc2ccc(S(N)(=O)=O)cc2)ncc1/N=C/c1cccs1 | 82.1 |
| NS(=O)(=O)c1ccc(Nc2ncc(/N=C/c3ccc(C(F)(F)F)cc3)c(NC3CCCC3)n2)cc1 | > 100 |
| CCOC(=O)/C=N/c1cnc(Nc2ccc(N3CCN(C)CC3)cc2)nc1NC1CCCC1 | 17 |
| CC(C)Nc1nc(Nc2ccc(N3CCN(C)CC3)cc2)ncc1/N=C/c1ccccc1 | > 100 |
| FC(F)(F)c1ccc(/C=N/c2cnc(Nc3ccc(N4CCOCC4)cc3)nc2NC2CCCC2)cc1 | 97.2 |
| CN1CCN(c2ccc(Nc3ncc(/N=C/c4cccs4)c(NC4CCCC4)n3)cc2)CC1 | 18.9 |
| CCOC(=O)/C=N/c1cnc(Nc2ccc(N3CCN(C)CC3)cc2)nc1NC(C)C | 13.6 |
| CC(C)Nc1nc(Nc2ccc(N3CCN(C)CC3)cc2)ncc1/N=C/c1cccs1 | > 100 |
| C(=N\c1cnc(Nc2ccc(N3CCOCC3)cc2)nc1NC1CCCC1)/c1cccs1 | > 100 |
| CC(C)Nc1nc(Nc2ccc(N3CCOCC3)cc2)ncc1/N=C/c1ccccc1 | > 100 |
| CN1CCN(c2ccc(Nc3ncc(/N=C/c4ccccc4)c(NC4CCCC4)n3)cc2)CC1 | 35.2 |
| CCOC(=O)/C=N/c1cnc(Nc2ccc(S(N)(=O)=O)cc2)nc1NC1CCCC1 | 9.64 |
| CCOC(=O)/C=N/c1cnc(Nc2ccc(S(N)(=O)=O)cc2)nc1NC1CC1 | > 100 |
| CCOC(=O)/C=N/c1cnc(Nc2ccc(S(N)(=O)=O)cc2)nc1NC(C)C | 49.1 |
| CC(C)Nc1nc(Nc2ccc(S(N)(=O)=O)cc2)ncc1/N=C/c1ccc(C(F)(F)F)cc1 | > 100 |
| CC(C)Nc1nc(Nc2ccc(N3CCOCC3)cc2)ncc1/N=C/c1ccc(C(F)(F)F)cc1 | > 100 |
| NS(=O)(=O)c1ccc(Nc2ncc(/N=C/c3cccs3)c(NC3CCCC3)n2)cc1 | 13.3 |

System: HT-29
Experiment: Antiproliferative activity against human HT-29 cells assessed as reduction in cell viability by MTT assay
Format: functional, cell-based

| SMILES | IC50 [µM] |
| --- | --- |
| CN1CCN(c2ccc(Nc3ncc(/N=C/c4ccc(C(F)(F)F)cc4)c(NC4CCCC4)n3)cc2)CC1 | 80.7 |
| CC(C)Nc1nc(Nc2ccc(N3CCOCC3)cc2)ncc1/N=C/c1cccs1 | 25.3 |
| CC(C)Nc1nc(Nc2ccc(S(N)(=O)=O)cc2)ncc1/N=C/c1ccccc1 | 98.2 |
| NS(=O)(=O)c1ccc(Nc2ncc(/N=C/c3ccccc3)c(NC3CCCC3)n2)cc1 | 27 |
| CC(C)Nc1nc(Nc2ccc(N3CCN(C)CC3)cc2)ncc1/N=C/c1ccc(C(F)(F)F)cc1 | > 100 |
| C(=N\c1cnc(Nc2ccc(N3CCOCC3)cc2)nc1NC1CCCC1)/c1ccccc1 | 67.6 |
| CCOC(=O)/C=N/c1cnc(Nc2ccc(N3CCOCC3)cc2)nc1NC(C)C | 19.6 |
| CC(C)Nc1nc(Nc2ccc(S(N)(=O)=O)cc2)ncc1/N=C/c1cccs1 | > 100 |
| NS(=O)(=O)c1ccc(Nc2ncc(/N=C/c3ccc(C(F)(F)F)cc3)c(NC3CCCC3)n2)cc1 | > 100 |
| CCOC(=O)/C=N/c1cnc(Nc2ccc(N3CCN(C)CC3)cc2)nc1NC1CCCC1 | 15.1 |
| CC(C)Nc1nc(Nc2ccc(N3CCN(C)CC3)cc2)ncc1/N=C/c1ccccc1 | 12.1 |
| FC(F)(F)c1ccc(/C=N/c2cnc(Nc3ccc(N4CCOCC4)cc3)nc2NC2CCCC2)cc1 | > 100 |
| CN1CCN(c2ccc(Nc3ncc(/N=C/c4cccs4)c(NC4CCCC4)n3)cc2)CC1 | 21.7 |
| CCOC(=O)/C=N/c1cnc(Nc2ccc(N3CCN(C)CC3)cc2)nc1NC(C)C | 7.59 |
| CC(C)Nc1nc(Nc2ccc(N3CCN(C)CC3)cc2)ncc1/N=C/c1cccs1 | > 100 |
| C(=N\c1cnc(Nc2ccc(N3CCOCC3)cc2)nc1NC1CCCC1)/c1cccs1 | 20.8 |
| CC(C)Nc1nc(Nc2ccc(N3CCOCC3)cc2)ncc1/N=C/c1ccccc1 | > 100 |
| CN1CCN(c2ccc(Nc3ncc(/N=C/c4ccccc4)c(NC4CCCC4)n3)cc2)CC1 | 28.6 |
| CCOC(=O)/C=N/c1cnc(Nc2ccc(S(N)(=O)=O)cc2)nc1NC1CCCC1 | 23.6 |
| CCOC(=O)/C=N/c1cnc(Nc2ccc(S(N)(=O)=O)cc2)nc1NC1CC1 | > 100 |
| CCOC(=O)/C=N/c1cnc(Nc2ccc(S(N)(=O)=O)cc2)nc1NC(C)C | > 100 |
| CC(C)Nc1nc(Nc2ccc(S(N)(=O)=O)cc2)ncc1/N=C/c1ccc(C(F)(F)F)cc1 | > 100 |
| CC(C)Nc1nc(Nc2ccc(N3CCOCC3)cc2)ncc1/N=C/c1ccc(C(F)(F)F)cc1 | > 100 |
| NS(=O)(=O)c1ccc(Nc2ncc(/N=C/c3cccs3)c(NC3CCCC3)n2)cc1 | 9.95 |
| O=c1[nH]cc(F)c(=O)[nH]1 [FLUOROURACIL] | 16.1 |

System: MCF7
Experiment: Antiproliferative activity against human MCF7 cells assessed as reduction in cell viability by MTT assay
Format: functional, cell-based

| SMILES | IC50 [µM] |
| --- | --- |
| CN1CCN(c2ccc(Nc3ncc(/N=C/c4ccc(C(F)(F)F)cc4)c(NC4CCCC4)n3)cc2)CC1 | > 100 |
| CC(C)Nc1nc(Nc2ccc(N3CCOCC3)cc2)ncc1/N=C/c1cccs1 | > 100 |
| CC(C)Nc1nc(Nc2ccc(S(N)(=O)=O)cc2)ncc1/N=C/c1ccccc1 | > 100 |
| NS(=O)(=O)c1ccc(Nc2ncc(/N=C/c3ccccc3)c(NC3CCCC3)n2)cc1 | 39.1 |
| CC(C)Nc1nc(Nc2ccc(N3CCN(C)CC3)cc2)ncc1/N=C/c1ccc(C(F)(F)F)cc1 | > 100 |
| C(=N\c1cnc(Nc2ccc(N3CCOCC3)cc2)nc1NC1CCCC1)/c1ccccc1 | > 100 |
| CCOC(=O)/C=N/c1cnc(Nc2ccc(N3CCOCC3)cc2)nc1NC(C)C | 15.2 |
| CC(C)Nc1nc(Nc2ccc(S(N)(=O)=O)cc2)ncc1/N=C/c1cccs1 | 50.2 |
| NS(=O)(=O)c1ccc(Nc2ncc(/N=C/c3ccc(C(F)(F)F)cc3)c(NC3CCCC3)n2)cc1 | > 100 |
| CCOC(=O)/C=N/c1cnc(Nc2ccc(N3CCN(C)CC3)cc2)nc1NC1CCCC1 | 42.3 |
| CC(C)Nc1nc(Nc2ccc(N3CCN(C)CC3)cc2)ncc1/N=C/c1ccccc1 | > 100 |
| FC(F)(F)c1ccc(/C=N/c2cnc(Nc3ccc(N4CCOCC4)cc3)nc2NC2CCCC2)cc1 | > 100 |
| CN1CCN(c2ccc(Nc3ncc(/N=C/c4cccs4)c(NC4CCCC4)n3)cc2)CC1 | 33.9 |
| CCOC(=O)/C=N/c1cnc(Nc2ccc(N3CCN(C)CC3)cc2)nc1NC(C)C | 12.3 |
| CC(C)Nc1nc(Nc2ccc(N3CCN(C)CC3)cc2)ncc1/N=C/c1cccs1 | 91 |
| C(=N\c1cnc(Nc2ccc(N3CCOCC3)cc2)nc1NC1CCCC1)/c1cccs1 | > 100 |
| CC(C)Nc1nc(Nc2ccc(N3CCOCC3)cc2)ncc1/N=C/c1ccccc1 | > 100 |
| CN1CCN(c2ccc(Nc3ncc(/N=C/c4ccccc4)c(NC4CCCC4)n3)cc2)CC1 | > 100 |
| CCOC(=O)/C=N/c1cnc(Nc2ccc(S(N)(=O)=O)cc2)nc1NC1CCCC1 | 42.2 |
| CCOC(=O)/C=N/c1cnc(Nc2ccc(S(N)(=O)=O)cc2)nc1NC1CC1 | > 100 |
| CCOC(=O)/C=N/c1cnc(Nc2ccc(S(N)(=O)=O)cc2)nc1NC(C)C | 58.8 |
| CC(C)Nc1nc(Nc2ccc(S(N)(=O)=O)cc2)ncc1/N=C/c1ccc(C(F)(F)F)cc1 | > 100 |
| CC(C)Nc1nc(Nc2ccc(N3CCOCC3)cc2)ncc1/N=C/c1ccc(C(F)(F)F)cc1 | > 100 |
| NS(=O)(=O)c1ccc(Nc2ncc(/N=C/c3cccs3)c(NC3CCCC3)n2)cc1 | 23 |
| O=c1[nH]cc(F)c(=O)[nH]1 [FLUOROURACIL] | 18.1 |

System: HeLa
Experiment: Antiproliferative activity against human HeLa cells assessed as reduction in cell viability by MTT assay
Format: functional, cell-based

| SMILES | IC50 [µM] |
| --- | --- |
| CN1CCN(c2ccc(Nc3ncc(/N=C/c4ccc(C(F)(F)F)cc4)c(NC4CCCC4)n3)cc2)CC1 | > 100 |
| CC(C)Nc1nc(Nc2ccc(N3CCOCC3)cc2)ncc1/N=C/c1cccs1 | > 100 |
| CC(C)Nc1nc(Nc2ccc(S(N)(=O)=O)cc2)ncc1/N=C/c1ccccc1 | > 100 |
| NS(=O)(=O)c1ccc(Nc2ncc(/N=C/c3ccccc3)c(NC3CCCC3)n2)cc1 | 15.6 |
| CC(C)Nc1nc(Nc2ccc(N3CCN(C)CC3)cc2)ncc1/N=C/c1ccc(C(F)(F)F)cc1 | > 100 |
| C(=N\c1cnc(Nc2ccc(N3CCOCC3)cc2)nc1NC1CCCC1)/c1ccccc1 | > 100 |
| CCOC(=O)/C=N/c1cnc(Nc2ccc(N3CCOCC3)cc2)nc1NC(C)C | 27.7 |
| CC(C)Nc1nc(Nc2ccc(S(N)(=O)=O)cc2)ncc1/N=C/c1cccs1 | > 100 |
| NS(=O)(=O)c1ccc(Nc2ncc(/N=C/c3ccc(C(F)(F)F)cc3)c(NC3CCCC3)n2)cc1 | 21.9 |
| CCOC(=O)/C=N/c1cnc(Nc2ccc(N3CCN(C)CC3)cc2)nc1NC1CCCC1 | 18.9 |
| CC(C)Nc1nc(Nc2ccc(N3CCN(C)CC3)cc2)ncc1/N=C/c1ccccc1 | > 100 |
| FC(F)(F)c1ccc(/C=N/c2cnc(Nc3ccc(N4CCOCC4)cc3)nc2NC2CCCC2)cc1 | > 100 |
| CN1CCN(c2ccc(Nc3ncc(/N=C/c4cccs4)c(NC4CCCC4)n3)cc2)CC1 | 25.7 |
| CCOC(=O)/C=N/c1cnc(Nc2ccc(N3CCN(C)CC3)cc2)nc1NC(C)C | 11.5 |
| CC(C)Nc1nc(Nc2ccc(N3CCN(C)CC3)cc2)ncc1/N=C/c1cccs1 | 77.1 |
| C(=N\c1cnc(Nc2ccc(N3CCOCC3)cc2)nc1NC1CCCC1)/c1cccs1 | > 100 |
| CC(C)Nc1nc(Nc2ccc(N3CCOCC3)cc2)ncc1/N=C/c1ccccc1 | > 100 |
| CN1CCN(c2ccc(Nc3ncc(/N=C/c4ccccc4)c(NC4CCCC4)n3)cc2)CC1 | > 100 |
| CCOC(=O)/C=N/c1cnc(Nc2ccc(S(N)(=O)=O)cc2)nc1NC1CCCC1 | 20.7 |
| CCOC(=O)/C=N/c1cnc(Nc2ccc(S(N)(=O)=O)cc2)nc1NC1CC1 | > 100 |
| CCOC(=O)/C=N/c1cnc(Nc2ccc(S(N)(=O)=O)cc2)nc1NC(C)C | 83.3 |
| CC(C)Nc1nc(Nc2ccc(S(N)(=O)=O)cc2)ncc1/N=C/c1ccc(C(F)(F)F)cc1 | > 100 |
| CC(C)Nc1nc(Nc2ccc(N3CCOCC3)cc2)ncc1/N=C/c1ccc(C(F)(F)F)cc1 | > 100 |
| NS(=O)(=O)c1ccc(Nc2ncc(/N=C/c3cccs3)c(NC3CCCC3)n2)cc1 | 10.9 |
| O=c1[nH]cc(F)c(=O)[nH]1 [FLUOROURACIL] | 42.7 |
